Test results reported in patent US12465050B2, “Compositions comprising a pyridine carboxylate herbicide and protoporphyrinogen oxidase (protox) inhibitor herbicides” (priority 2018, dated 2025).

Experiments:
Type in all cases: in vivo
[1] = system: Setaria faberi (giant foxtail); assay: Greenhouse postemergence herbicidal effect on SETFA
Source text: (§1) Greenhouse Trial Methodology—Evaluation of Postemergence Herbicidal Effect
(§2) Seeds of the desired test plant species were planted in a 90:10% v/v (volume/volume) mixture of PRO-MIX® BX (Premier Tech Horticulture, Quakertown, Pa., USA) and PROFILE® GREENS GRADE™ (Profile Products LLC, Buffalo Grove, Ill., USA) planting mixture, which typically has a pH of 5.2 to 6.2 and an organic matter content of at least 50 percent, in plastic pots with a surface area of 103.2 square centimeters (cm^2). In some aspects or embodiments, to help ensure good germination and healthy plants, a fungicide treatment and/or other chemical or physical treatment was applied. The plants were grown for 7-36 days (d) in a greenhouse with an approximate 14-hour (h) photoperiod which was maintained at about 23° C. during the day and 22° C. during the night. Nutrients and water were added on a regular basis and supplemental lighting was provided with overhead metal halide 1000-Watt lamps as necessary. The plants were employed for testing when they reached the second or third true leaf stage.
(§3) Emulsifiable concentrates of each of each pyridine carboxylate herbicide (Compound A or Compound B) were prepared at 100 grams acid equivalent per liter (g ae/L). The emulsifiable concentrates also included a safener, cloquintocet mexyl, at 120 grams active ingredient per liter (g ai/L). An aliquot of each emulsifiable concentrate was placed in a 25 mL glass vial and diluted with an aqueous mixture of 1.25% (v/v) ACTIROB® B esterified rapeseed oil (Bayer Crop Science, Research Triangle Park, N.C., USA) or MSO® Concentrate with LECI-TECH® methylated soybean oil (Loveland Products, Loveland, Colo., USA) to obtain concentrated stock solutions at the highest application rate for each herbicide, based upon a 12 milliliter (mL) application volume at a rate of 187 liters per hectare (L/ha). The concentrated stock solutions were further diluted with an aqueous mixture of 1.25% v/v ACTIROB® B or MSO® Concentrate with LECI-TECH® to obtain stock solutions at reduced application rates for each herbicide. Spray solutions of the herbicide combinations (Compound A or Compound B plus PROTOX inhibitor herbicide) were prepared by adding weighed amounts or aliquots of the PROTOX inhibitor herbicides to the stock solutions of Compound A or Compound B to form 12-mL spray solutions in two-way combinations.
(§4) The spray solutions were applied to the plant material with an overhead Mandel track sprayer equipped with 8002E nozzles calibrated to deliver 187 L/ha over an application area of 0.503 square meters (m^2) at a spray height of 18 inches (43 centimeters (cm)) above the average plant canopy. Control plants were sprayed in the same manner with the solvent blank. All pyridine carboxylate herbicide (component a) application rates are given as “g ae/ha” and all PROTOX inhibitor herbicide (component b) application rates are given as “g ai/ha.”
(§5) The treated plants and control plants were placed in a greenhouse as described above and watered by sub-irrigation to prevent wash-off of the test compounds. After 20-22 d, the condition of the test plants as compared with that of the control plants was determined visually and scored on a scale of 0 to 100 percent where 0 corresponds to no injury and 100 corresponds to complete kill.

[2] = system: Digitaria sanguinalis (large crabgrass); assay: Greenhouse postemergence herbicidal effect on DIGSA
Source text: as §1, §2
Emulsifiable concentrates of each of each pyridine carboxylate herbicide (Compound A or Compound B) were prepared at 100 grams acid equivalent per liter (g ae/L). The emulsifiable concentrates also included a safener, cloquintocet mexyl, at 120 grams active ingredient per liter (g ai/L). […]
as §5

[3] = system: Salsola kali (Russian thistle); assay: Greenhouse postemergence herbicidal effect on SASKR
Source text: as §1, §2, §3, §4, §5

[4] = system: Hordeum vulgare (spring barley); assay: Greenhouse postemergence phytotoxicity on crop HORVS
Source text: as §1, §2, §3, §4, §5

[5] = system: Brassica napus (winter rape); assay: Greenhouse postemergence herbicidal effect on BRSNW
Source text: as §1, §2, §3, §4, §5

[6] = Compound A 7.5, Carfentrazone-ethyl 0 g/ha
[7] = Compound A 7.5, Oxyfluorfen 0 g/ha
[8] = Compound A 7.5, Pyraclonil 0 g/ha
[9] = Compound A 7.5, Pyraflufen-ethyl 0 g/ha
[10] = Compound A 10, Carfentrazone-ethyl 0 g/ha
[11] = Compound A 10, Oxyfluorfen 0 g/ha
[12] = Compound A 10, Pyraclonil 0 g/ha
[13] = Compound A 10, Pyraflufen-ethyl 0 g/ha
[14] = Compound A 15, Oxyfluorfen 0 g/ha

In the case of `N#CCOC(=O)c1nc(-c2ccc3cc[nH]c3c2F)c(F)c(N)c1Cl` [Compound A, cyanomethyl 4-amino-3-chloro-5-fluoro-6-(7-fluoro-1H-indol-6-yl)pyridine-2-carboxylate], the “% visual injury, Obs” value ([1]; Compound A 7.5, Bifenox 0 g/ha) is reported as 60%, the “% visual injury, Obs” value ([1]; Compound A 7.5, Saflufenacil 0 g/ha) is reported as 78% and the “% visual injury, Obs” value ([1]; Compound A 10, Bifenox 0 g/ha) is reported as 78%. For the same molecule, the “% visual injury, Obs” value ([1]; Compound A 10, Saflufenacil 0 g/ha) was 80%, the “% visual injury, Obs” value ([2]; Compound A 7.5, Bifenox 0 g/ha) was 13% and the “% visual injury, Obs” value ([2]; Compound A 10, Bifenox 0 g/ha) was 25%. For the same molecule, the “% visual injury, Obs” value [3, 6] was 45%, the “% visual injury, Obs” value [3, 7] was 50% and the “% visual injury, Obs” value [3, 8] was 45%. For the same molecule, the “% visual injury, Obs” value [3, 9] was 60%, the “% visual injury, Obs” value [3, 10] was 60% and the “% visual injury, Obs” value [3, 11] was 60%. The “% visual injury, Obs” value [3, 12] was 60%, the “% visual injury, Obs” value [3, 13] was 63% and the “% visual injury, Obs” value [3, 14] was 63%. The “% visual injury, Obs” value [4, 6] was 8%, the “% visual injury, Obs” value [4, 7] was 0% and the “% visual injury, Obs” value [4, 8] was 8%. The “% visual injury, Obs” value [4, 9] was 0%, the “% visual injury, Obs” value [4, 10] was 0% and the “% visual injury, Obs” value [4, 11] was 0%. For the same molecule, the “% visual injury, Obs” value [4, 12] was 0%, the “% visual injury, Obs” value [4, 13] was 0% and the “% visual injury, Obs” value [4, 14] was 0%. The “% visual injury, Obs” value [5, 7] was 60%, the “% visual injury, Obs” value [5, 9] was 35% and the “% visual injury, Obs” value [5, 11] was 65%. The “% visual injury, Obs” value [5, 13] was 40% and the “% visual injury, Obs” value [5, 14] was 73%.
